In experiment [1] the target is T1, mMC3R (Mus musculus, UniProt P33033). The experiment can be described thus: Receptor binding study, competitive displacement of 125I-NDP-MSH at mMC3R. Also noted: expressed in transfected cells. The note with it: peptide at 10 μM.
In experiment [2] the target is T2, mMC4R (Mus musculus, UniProt P56450). As to the kind of experiment: Functional bioassay, CRE/β-galactosidase reporter in HEK-293 cells stably expressing mMC4R.
Protocol: (§1) 5,000 to 15,000 post transfection cells were plated into 96 well Primera plates (Falcon) and incubated overnight. […] The assay media was aspirated and 50 μL of lysis buffer (250 mM Tris-HCl pH=8.0 and 0.1% Triton X-100) was added. The plates were stored at −80° overnight.
(§2) The plates containing the cell lysates were thawed the following day. Aliquots of 10 μL were taken from each well and transferred to another 96-well plate for relative protein determination. To the cell lysate plates, 40 μL phosphate-buffered saline with 0.5% BSA was added to each well. Subsequently, 150 μL substrate buffer (60 mM sodium phosphate, 1 mM MgCl2, 10 mM KCl, 5 mM β-mercaptoethanol, 200 mg/100 mL ONPG) was added to each well and the plates were incubated at 37°.
(§3) The sample absorbance, OD405, was measured using a 96 well plate reader (Molecular Devices). The relative protein was determined by adding 200 μL 1:5 dilution Bio Rad G250 protein dye:water to the 10 μL cell lysate sample taken previously, and the OD595 was measured on a 96 well plate reader (Molecular Devices). Data points were normalized both to the relative protein content and non-receptor dependent forskolin stimulation.
(§4) For data analysis, EC50 and pA2 values represent the mean of duplicate experiments performed in triplet, quadruplet or more independent experiments.
Experiment [3] concerns the target T1, mMC3R. As to the kind of experiment: Functional bioassay, CRE/β-galactosidase reporter in HEK-293 cells stably expressing mMC3R. The note with it: for pharmacology in words at mMC3R: slight agonist = some stimulatory response at 100 μM, not enough to determine an EC50.
Protocol: as §1, §2, §3, §4
For another experiment, the target named is mMC1R (Mus musculus, UniProt Q01727). As to the kind of experiment: Functional bioassay, CRE/β-galactosidase reporter in HEK-293 cells stably expressing mMC1R. The note with it: for pharmacology in words at mMC1R: slight agonist = some stimulatory response at 100 μM, not enough to determine an EC50.
Chain of mMC1R (Q01727 whole entry): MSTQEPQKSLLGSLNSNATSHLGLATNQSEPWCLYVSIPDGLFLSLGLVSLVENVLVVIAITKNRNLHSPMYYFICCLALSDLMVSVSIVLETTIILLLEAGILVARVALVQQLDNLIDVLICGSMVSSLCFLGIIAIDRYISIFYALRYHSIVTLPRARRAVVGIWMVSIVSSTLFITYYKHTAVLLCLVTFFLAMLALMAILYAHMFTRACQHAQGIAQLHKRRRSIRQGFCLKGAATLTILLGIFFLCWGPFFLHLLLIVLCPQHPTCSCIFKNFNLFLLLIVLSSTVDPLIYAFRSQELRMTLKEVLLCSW
In experiment [4] the target is T2, mMC4R. The experiment can be described thus: Receptor binding study, competitive displacement of 125I-NDP-MSH at mMC4R. Also on record: expressed in transfected cells. The note with it: peptide at 10 μM.
A further experiment concerns the target mMC5R (Mus musculus, UniProt P41149). As to the kind of experiment: Functional bioassay, CRE/β-galactosidase reporter in HEK-293 cells stably expressing mMC5R. The note with it: for pharmacology in words at mMC5R: slight agonist = some stimulatory response at 100 μM, not enough to determine an EC50.

Where a SMILES comes first, the peptide text is derived from it. Bridges are numbered along the chain shown (N, C = ends). [ ]: non-standard residue; d: D form. Nle = CCCC[C@H](N)C(=O)O; Dap = NC[C@H](N)C(=O)O

Chain of mMC5R (P41149 whole entry): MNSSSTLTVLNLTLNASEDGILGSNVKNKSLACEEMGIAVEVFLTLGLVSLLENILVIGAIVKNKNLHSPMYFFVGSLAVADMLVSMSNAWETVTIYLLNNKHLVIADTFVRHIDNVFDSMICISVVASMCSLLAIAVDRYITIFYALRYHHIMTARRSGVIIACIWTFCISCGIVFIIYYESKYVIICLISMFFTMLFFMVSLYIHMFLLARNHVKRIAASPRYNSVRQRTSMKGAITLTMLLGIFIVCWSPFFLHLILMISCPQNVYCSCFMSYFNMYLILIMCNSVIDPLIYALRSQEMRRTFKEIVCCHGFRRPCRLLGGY
T1 sequence (P33033 whole entry): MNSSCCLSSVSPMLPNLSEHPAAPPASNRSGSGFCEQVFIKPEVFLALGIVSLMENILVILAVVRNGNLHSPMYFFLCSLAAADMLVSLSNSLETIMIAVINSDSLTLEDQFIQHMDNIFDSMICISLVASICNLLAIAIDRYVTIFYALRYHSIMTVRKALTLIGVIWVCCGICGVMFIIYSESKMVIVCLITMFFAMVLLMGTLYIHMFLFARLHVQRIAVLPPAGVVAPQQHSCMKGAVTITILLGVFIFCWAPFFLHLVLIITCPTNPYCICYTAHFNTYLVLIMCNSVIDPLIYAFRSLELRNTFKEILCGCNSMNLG
T2 sequence (P56450 whole entry): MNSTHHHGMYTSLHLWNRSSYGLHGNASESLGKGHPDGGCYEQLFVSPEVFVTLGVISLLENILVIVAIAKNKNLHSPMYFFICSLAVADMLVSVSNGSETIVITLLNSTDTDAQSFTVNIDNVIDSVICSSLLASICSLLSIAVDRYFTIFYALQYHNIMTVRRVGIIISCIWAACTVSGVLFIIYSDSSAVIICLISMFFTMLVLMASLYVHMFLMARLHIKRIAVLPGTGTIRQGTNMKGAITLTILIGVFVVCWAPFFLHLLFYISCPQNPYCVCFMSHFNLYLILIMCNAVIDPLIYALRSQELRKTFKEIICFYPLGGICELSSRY
Protocol for mMC1R: as §1, §2, §3, §4
Protocol for mMC5R: as §1, §2, §3, §4

As for `C[C@@H]1NC(=O)[C@H](CC(N)=O)NC(=O)[C@H](Cc2c[nH]c3ccccc23)NC(=O)[C@H](CCCNC(=N)N)NC(=O)[C@@H](Cc2ccccc2)NC(=O)[C@@H](NC(=O)[C@@H](N)Cc2ccc(O)cc2)CC(=O)NC[C@@H](C(=O)N[C@@H](Cc2ccc(O)cc2)C(N)=O)NC(=O)[C@H](Cc2ccccc2)NC1=O` [SEQ ID NO: 7, Tyr-c[Asp-DPhe-Arg-Trp-Asn-Ala-Phe-Dpr]-Tyr] (H-YD[dF]RWNAF[Dap]Y-NH2; lactam 2-9), the “specific binding at mMC3R (displacement of 125I-NDP-MSH)” value (from here on “specific binding at mMC3R”) on mMC3R [1] is at most 25%. In addition, the EC50 at mMC4R [2] is 0.45 µM. Also, the “MC4R versus MC3R selective” value at mMC4R [2] (agonist EC50 ratio) is above 200 fold. Moreover, the “pharmacology in words at mMC3R” value at mMC3R [3] is given as “Slight agonist”.
`C[C@@H]1NC(=O)[C@H](CC(N)=O)NC(=O)[C@H](Cc2ccccc2)NC(=O)[C@H](Cc2ccccc2)NC(=O)[C@H](CCCNC(=N)N)NC(=O)[C@H](Cc2c[nH]cn2)NC(=O)[C@@H](NC(=O)[C@@H](N)Cc2ccc(O)cc2)CC(=O)NC[C@@H](C(=O)N[C@@H](Cc2ccc(O)cc2)C(N)=O)NC(=O)[C@H](Cc2ccccc2)NC1=O` [SEQ ID NO: 8] (H-YDHRFFNAF[Dap]Y-NH2; lactam 2-10): on mMC1R (compared with SEQ ID NO:3), the “decreased mMC1R agonist potency” value is on record as 8 fold. The “specific binding at mMC3R” value on mMC3R [1] is reported as “less than 50%”. For the same compound, the “pharmacology in words at mMC3R” value at mMC3R [3] is “Slight agonist”. Also, on mMC4R [4], the “specific binding at mMC4R (displacement of 125I-NDP-MSH)” value was “less than 50%”.
In the case of `CCCC[C@H](NC(=O)[C@H](CO)NC(=O)[C@H](Cc1ccc(O)cc1)NC(=O)[C@H](CO)NC(C)=O)C(=O)N[C@@H](CCC(=O)O)C(=O)N[C@@H](Cc1c[nH]cn1)C(=O)N[C@@H](C)C(=O)N[C@@H](C)C(=O)N[C@@H](C)C(=O)NCC(=O)N[C@@H](CCCCN)C(=O)N1CCC[C@H]1C(=O)N[C@H](C(N)=O)C(C)C` [SEQ ID NO: 12] (Ac-SYS[Nle]EHAAAGKPV-NH2), the EC50 on mMC1R, at mMC5R, at mMC4R [2] and on mMC3R [3] was above 100 µM in each case. Moreover, at mMC3R [1], the “specific binding at mMC3R” value is reported as at most 25%.
Regarding `CCCC[C@H](NC(=O)[C@H](CO)NC(=O)[C@H](Cc1ccc(O)cc1)NC(=O)[C@H](CO)NC(C)=O)C(=O)N[C@@H](CCC(=O)O)C(=O)N[C@@H](Cc1ccccc1)C(=O)N[C@@H](Cc1ccccc1)C(=O)N[C@@H](CCCNC(=N)N)C(=O)NCC(=O)N[C@@H](CCCCN)C(=O)N1CCC[C@H]1C(=O)N[C@H](C(N)=O)C(C)C` [SEQ ID NO: 13] (Ac-SYS[Nle]EFFRGKPV-NH2), the “pharmacology in words at mMC1R” value on mMC1R was “Partial agonist”. The half-maximal effective concentration (EC50) on mMC5R, on mMC4R [2] and at mMC3R [3] was above 100 µM in each case.
With `CCCC[C@H](NC(=O)[C@H](CO)NC(=O)[C@H](Cc1ccc(O)cc1)NC(=O)[C@H](CO)NC(C)=O)C(=O)N[C@@H](CCC(=O)O)C(=O)N[C@@H](Cc1c[nH]cn1)C(=O)N[C@@H](Cc1ccccc1)C(=O)N[C@@H](Cc1ccccc1)C(=O)N[C@@H](CCCNC(=N)N)C(=O)NCC(=O)N[C@@H](CCCCN)C(=O)N1CCC[C@H]1C(=O)N[C@H](C(N)=O)C(C)C` [SEQ ID NO: 14] (Ac-SYS[Nle]EHFFRGKPV-NH2), the “pharmacology in words at mMC1R” value on mMC1R was “Partial agonist”. In addition, the “pharmacology in words at mMC5R” value at mMC5R is “Partial agonist”. Moreover, the EC50 at mMC4R [2] is above 100 µM. Moreover, the “pharmacology in words at mMC3R” value at mMC3R [3] is given as “Partial agonist”.
Consider `CCCC[C@H](NC(=O)[C@H](CO)NC(=O)[C@H](Cc1ccc(O)cc1)NC(=O)[C@H](CO)NC(C)=O)C(=O)N[C@@H](CCC(=O)O)C(=O)N[C@@H](Cc1c[nH]cn1)C(=O)N[C@H](CCCNC(=N)N)C(=O)N[C@@H](Cc1ccccc1)C(=O)N[C@@H](Cc1ccccc1)C(=O)NCC(=O)N[C@@H](CCCCN)C(=O)N1CCC[C@H]1C(=O)N[C@H](C(N)=O)C(C)C` [SEQ ID NO: 16, Ac-Ser-Tyr-Ser-Nle-Glu-His-DArg-Phe-Phe-Gly-Lys-Pro-Val] (Ac-SYS[Nle]EH[dR]FFGKPV-NH2), for which the “pharmacology in words at mMC1R” value at mMC1R was “Slight agonist”. Further, the “pharmacology in words at mMC5R” value at mMC5R is reported as “Slight agonist”. The EC50 on mMC4R [2] and at mMC3R [3] was above 100 µM each time.
As to `CCCC[C@H](NC(=O)[C@H](CO)NC(=O)[C@H](Cc1ccc(O)cc1)NC(=O)[C@H](CO)NC(C)=O)C(=O)N[C@@H](CCC(=O)O)C(=O)N[C@@H](Cc1c[nH]cn1)C(=O)N[C@@H](CCCNC(=N)N)C(=O)N[C@H](Cc1ccccc1)C(=O)N[C@@H](Cc1ccccc1)C(=O)NCC(=O)N[C@@H](CCCCN)C(=O)N1CCC[C@H]1C(=O)N[C@H](C(N)=O)C(C)C` [SEQ ID NO: 17, Ac-Ser-Tyr-Ser-Nle-Glu-His-Arg-DPhe-Phe-Gly-Lys-Pro-Val] (Ac-SYS[Nle]EHR[dF]FGKPV-NH2), on mMC1R (agonist EC50 ratio), the “MC1R versus MC3R selective” value came to 850 fold and the “MC1R versus MC5R selective” value stood at 62 fold. Further, at mMC1R (compared with SEQ ID NO:15), the “increase in mMC1R agonist potency” value worked out at 8 fold. Further, the “pharmacology in words at mMC4R” value on mMC4R [2] (slight agonist = some stimulatory response at 100 μM, not enough to determine an EC50) is “Slight agonist”. Moreover, the “decreased mMC3R agonist potency” value at mMC3R [3] (compared with SEQ ID NO:15) stood at 13 fold. In addition, the “specific binding at mMC4R (displacement of 125I-NDP-MSH)” value at mMC4R [4] is listed as at most 25%.
Consider `CCCC[C@H](NC(C)=O)C(=O)N[C@H]1CC(=O)NCCCC[C@@H](C(N)=O)NC(=O)[C@H](C)NC(=O)[C@H](C)NC(=O)[C@H](C)NC(=O)[C@H](Cc2c[nH]cn2)NC1=O` [SEQ ID NO: 19, Ac-Nle-c[Asp-His-Ala-Ala-Ala-Lys]] (Ac-[Nle]DHAAAK-NH2; lactam 2-7), for which the EC50 on mMC1R, on mMC5R, on mMC4R [2] and on mMC3R [3] was above 100 µM each time.
Consider `CCCC[C@H](NC(C)=O)C(=O)N[C@H]1CC(=O)NCCCC[C@@H](C(N)=O)NC(=O)[C@H](Cc2ccccc2)NC(=O)[C@H](Cc2ccccc2)NC(=O)[C@H](CCCNC(=N)N)NC(=O)[C@H](Cc2c[nH]cn2)NC1=O` [SEQ ID NO: 20, Ac-Nle-c[Asp-His-Arg-Phe-Phe-Lys]] (Ac-[Nle]DHRFFK-NH2; lactam 2-7; C-terminus assumed), for which, at mMC1R, the “pharmacology in words at mMC1R” value was “Partial agonist”. The EC50 at mMC5R, on mMC4R [2] and at mMC3R [3] was above 100 µM throughout.
For `CCCC[C@H](NC(C)=O)C(=O)N[C@H]1CC(=O)NCCCC[C@@H](C(N)=O)NC(=O)[C@H](Cc2ccccc2)NC(=O)[C@H](Cc2ccccc2)NC(=O)[C@@H](CCCNC(=N)N)NC(=O)[C@H](Cc2c[nH]cn2)NC1=O` [SEQ ID NO: 21, Ac-Nle-c[Asp-His-DArg-Phe-Phe-Lys]] (Ac-[Nle]DH[dR]FFK-NH2; lactam 2-7), the EC50 at mMC1R, on mMC5R, at mMC4R [2] and on mMC3R [3] was above 100 µM throughout.

The values are drawn from patent US7582610B2, “Melanocortin receptor templates, peptides and use thereof” (priority 2003, dated 2009).
